Literature values as cited in patent US10478452B2, “Antiviral pharmaceutical composition for topical use” (QUIMICA LUAR SRL, priority 2015, dated 2019).

Settings: according to some studies

Nc1nc(O)c2ncn(COC(CO)CO)c2n1 [ganciclovir]
concentrations of intracellular triphosphate ganciclovir relative to those of acyclovir: approximately ten-fold higher
mean life of intracellular triphosphate: more than 24 hours
